Measured values as given in paper PMC10303159, “Conjugation of Triterpenic Acids of Ursane and Oleanane Types with Mitochondria-Targeting Cation F16 Synergistically Enhanced Their Cytotoxicity against Tumor Cells” (Membranes, 2023).
Where a name gives a salt, the structure may show the parent alone.

Key:
[1] = system: BT474 cells (human breast ductal carcinoma); assay: MTT cytotoxicity assay, BT474; assay type: cell-based; conditions: BT-474, 48 h of treatment, mean ± SEM
Excerpt: (§1) All cell lines used in this study (human non-small cell lung cancer—H1299 (Accession Number—CRL-5803), human lung carcinoma—A549 (Accession Number—CCL-185), human breast adenocarcinoma—MCF-7 (Accession Number—HTB-22), human breast ductal carcinoma—BT474 (Accession Number—HTB-20)) were purchased from American Type Culture Collection (ATCC, Manassas, VA, USA). Human primary dermal fibroblasts (HPDF) derived from a patch of skin of healthy donors (n = 3) were obtained from the biobank of the Institute for Regenerative Medicine, Lomonosov Moscow State University, collection ID: MSU_FB (https://human.depo.msu.ru (accessed on 14 September 2021)). Cells were grown in DMEM media supplemented with 10% fetal bovine serum, 100 μg/mL gentamycin, and 2 mM of glutamine at 37 °C in a 5% CO2 atmosphere.
(§2) To carry out the MTT assay, 3500 cells per well were seeded in 96-well plates. A day after the seeding, triterpenoids or their derivatives dissolved in DMSO were added. DMSO was used as a control. At 48 h after cell seeding, 10 μL of 5 mg/mL Thiazolyl Blue (Paneko, Russia) solution was added to each well and cells were kept for 3 h at 37 °C in a CO2 incubator. After removing the thiazol-containing medium, 150 μL of isopropyl alcohol (supplemented with 40 mM HCl and 0.1% NP-40) was added to dissolve the MTT-formazan salt. The absorbance at 570 and 630 nm (reference) was measured using a BioRad iMark microplate reader (BioRad, Hercules, CA, USA). Four biological replicates were used for the experiment. The results were processed with Excel software (version number: 14.0.6023.1000 (32-bit)). IC50 values were calculated by using AAT Bioquest online calculator (https://www.aatbio.com/tools/ic50-calculator, accessed on 15 May 2023) and are represented as the mean ± SEM.

rat liver mitochondria [2] = assay: Respiration of isolated mitochondria fueled by succinate; assay type: biochemical
Experimental: (§3) Mitochondria were obtained from the liver of male Wistar rats (210–250 g) using the differential centrifugation method. The detailed procedure and composition of the isolation media were described earlier. The suspension of isolated mitochondria contained about 60–70 mg of mitochondrial protein per ml (determined by the Bradford method).
(§4) The rate of O2 consumption by mitochondrial samples was estimated using Oxygraph Plus (Hansatech Instruments Ltd., Pentney, King’s Lynn, UK). The reaction medium included 200 mM sucrose, 20 mM KCl, 0.5 mM EGTA, 5 mM KH2PO4, and 10 mM Hepes/KOH, pH 7.4. The following combinations of substrates and reagents were used: 2.5 mM potassium glutamate + 2.5 mM potassium malate and 5 mM potassium succinate + 1 µM rotenone. Under these conditions, it is possible to assess the oxygen-consuming capacity of mitochondria through complexes I and II of the electron transport chain. To determine the rates of the phosphorylating respiration (State 3) and uncoupled respiration (State 3UDNP) of the mitochondria, 200 µM ADP and 50 µM 2,4-dinitrophenol (DNP) were added sequentially. The concentration of mitochondrial protein was 1 mg/mL.

BT474 cells = assay: Oxidative stress assay (Muse Oxidative Stress Kit), BT474; assay type: cell-based, human
Experimental: Oxidative stress was assessed after cell culture and incubation (as described above). For this, cells were harvested by trypsinization, washed with ice-cold PBS buffer (pH 7.4), and centrifuged (1000 rpm, 5 min). The resulting cells were resuspended in PBS. Cell population analysis for oxidative stress was performed on a Muse cell analyzer (Merck Millipore, Burlington, MA, USA) using the Muse Oxidative Stress Kit (MCH100111) according to the manufacturer’s protocol.

rat liver mitochondria [3] = assay: Respiration of isolated mitochondria fueled by glutamate and malate; assay type: biochemical
Experimental: as §3, §4

[4] = system: H1299 cells (human non-small cell lung cancer); assay: MTT cytotoxicity assay, H1299; assay type: cell-based; conditions: Homo sapiens, NCI-H1299, 48 h of treatment, mean ± SEM
Excerpt: as §1, §2

[5] = system: Human primary dermal fibroblasts (HPDF); assay: MTT cytotoxicity assay, HPDF; assay type: cell-based; conditions: for IC50: Homo sapiens, Fibroblast, MTT assay, 48 h of treatment, mean ± SEM; for Selectivity index (SI): between tumor cells H1299, A549 and MCF-7 and fibroblasts
Excerpt: as §1
as §2, with “A day after the seeding, triterpenoids or their derivatives dissolved in DMSO were added.” left out, “At 48 h after cell seeding, 10 μL of 5 mg/mL Thiazolyl Blue (Paneko, Russia) solution was added to each well and cells were kept for 3 h at 37 °C in a CO2 incubator.” left out

[6] = system: A549 cells (human lung carcinoma); assay: MTT cytotoxicity assay, A549; assay type: cell-based; conditions: Homo sapiens, A549, 48 h, MTT assay, 48 h of treatment, mean ± SEM
Excerpt: as §1
as §2, with “A day after the seeding, triterpenoids or their derivatives dissolved in DMSO were added.” left out, “At 48 h after cell seeding, 10 μL of 5 mg/mL Thiazolyl Blue (Paneko, Russia) solution was added to each well and cells were kept for 3 h at 37 °C in a CO2 incubator.” left out

[7] = system: MCF-7 cells (human breast adenocarcinoma); assay: MTT cytotoxicity assay, MCF-7; assay type: cell-based; conditions: for IC50: Homo sapiens, MCF7, MTT assay, 48 h of treatment, mean ± SEM; for Chou–Talalay combination index (CI): MCF7 cells, based on IC50 values for parent acid, F16 [23] and conjugate, CI < 1 synergism
Excerpt: as §1, §2

rat liver mitochondria [8] = assay: Mitochondrial H2O2 generation (Amplex Red); assay type: biochemical; conditions: 5 μM
Experimental: as §3
The fluorescent probe Amplex Red (λex = 560 nm; λem = 590 nm) and a plate reader Varioskan Lux were used to register mitochondrial H2O2 generation. In this case, 0.15 mg of mitochondrial protein was incubated in the buffer containing 210 mM mannitol, 70 mM sucrose, 10 μM EGTA, 10 µM Amplex Red, 1 µM rotenone, 10 µM EGTA, horseradish peroxidase (HRP 1 a.u./mL), 10 mM Hepes/KOH, and at a pH of 7.4. […] The kinetics of H2O2 generation was recorded for three minutes.

rat liver mitochondria [9] = assay: Mitochondrial membrane potential (TPP-sensitive electrode); assay type: biochemical; conditions: glutamate + malate or succinate + rotenone, Figure 5
Experimental: as §3
The mitochondrial membrane potential (Δψ) was measured using a penetrating tetraphenylphosphonium bromide (TPP) cation and a TPP-sensitive electrode (Nico-Analyte Ltd., Moscow, Russia) as described previously. The concentration of mitochondrial protein was 1 mg/mL.

## CC1CCC2(C(=O)OCCCC[n+]3ccc(C=Cc4c[nH]c5ccccc45)cc3)CCC3(C)C(=CCC4C5(C)CC(O)C(O)C(C)(C)C5CCC43C)C2C1C (stereo not drawn) (as salt: bromide) [CA-F16, N-{4-[(2α,3β-dihydroxy-urs-12-en-28-oyl)-butyl]-(E)-4-[2-(1H-indol-3-yl)-vinyl]}pyridinium bromide]
other
  melting point: 219 to 221 °C

## CC1CCC2(C(=O)OCCCC[n+]3ccc(C=Cc4c[nH]c5ccccc45)cc3)CCC3(C)C(=CCC4C5(C)CCC(O)C(C)(C)C5CCC43C)C2C1C (stereo not drawn) [UA-F16]
[1]
  IC50: 5.18 ± 0.15 µM
Rat liver mitochondria [2]; 10 μM
  ADP/O: 1.28 ± 0.04 rel. un.
  RC (state 3/state 4): 2.65 ± 0.07 rel. un.
  State 2 respiration: 14.42 ± 0.24 nmol O2/min/mg Protein
  State 3UDNP respiration: 67.34 ± 2.12 nmol O2/min/mg Protein
  State 3 respiration: 46.39 ± 0.30 nmol O2/min/mg Protein
  State 4 respiration: 17.51 ± 0.23 nmol O2/min/mg Protein
Rat liver mitochondria [2]; 20 μM
  ADP/O: 0.86 ± 0.05 *#^γ rel. un.
  RC (state 3/state 4): 1.37 ± 0.11 rel. un.
  State 2 respiration: 15.86 ± 0.40 nmol O2/min/mg Protein
  State 3UDNP respiration: 64.18 ± 3.81 nmol O2/min/mg Protein
  State 3 respiration: 43.98 ± 1.31 nmol O2/min/mg Protein
  State 4 respiration: 32.20 ± 1.68 nmol O2/min/mg Protein
BT474 cells; BT474, 3 μM
  Effect on level of ROS-positive cells: significantly increase the level of ROS-positive cells
Rat liver mitochondria [3]; 10 μM
  ADP/O: 2.65 ± 0.05 rel. un.
  RC (state 3/state 4): 2.20 ± 0.04 rel. un.
  State 2 respiration: 7.70 ± 0.33 nmol O2/min/mg Protein
  State 3UDNP respiration: 35.23 ± 0.89 nmol O2/min/mg Protein
  State 3 respiration: 25.89 ± 0.86 nmol O2/min/mg Protein
  State 4 respiration: 11.78 ± 0.22 nmol O2/min/mg Protein
Rat liver mitochondria [3]; 20 μM
  ADP/O: 0.74 ± 0.14 rel. un.
  RC (state 3/state 4): 1.02 ± 0.02 rel. un.
  State 2 respiration: 14.75 ± 0.21 nmol O2/min/mg Protein
  State 3UDNP respiration: 28.29 ± 1.18 nmol O2/min/mg Protein
  State 3 respiration: 19.35 ± 0.90 nmol O2/min/mg Protein
  State 4 respiration: 19.06 ± 1.11 nmol O2/min/mg Protein
[4]
  IC50: 2800 ± 250 nM
[5]
  IC50: 4.98 ± 0.9 µM
  Selectivity index (SI): 1.8–3.7
[5]; in words
  Selectivity against tumor cells and human fibroblasts: highest selectivity
[6]
  IC50: 2400 ± 300 nM
[7]
  IC50: 1360 ± 740 nM
  Chou–Talalay combination index (CI): 0.05

## CC1(C)CCC2(C(=O)OCCCC[n+]3ccc(C=Cc4c[nH]c5ccccc45)cc3)CCC3(C)C(=CCC4C5(C)CCC(O)C(C)(C)C5CCC43C)C2C1 (stereo not drawn) [OA-F16]
[1]
  IC50: 4.34 ± 0.28 µM
Rat liver mitochondria [2]; 10 μM
  ADP/O: 1.41 ± 0.09 rel. un.
  RC (state 3/state 4): 2.83 ± 0.20 rel. un.
  State 2 respiration: 14.39 ± 0.65 nmol O2/min/mg Protein
  State 3UDNP respiration: 69.57 ± 1.73 nmol O2/min/mg Protein
  State 3 respiration: 48.46 ± 0.82 nmol O2/min/mg Protein
  State 4 respiration: 17.22 ± 0.93 nmol O2/min/mg Protein
Rat liver mitochondria [2]; 20 μM
  ADP/O: 1.15 ± 0.05 rel. un.
  RC (state 3/state 4): 1.25 ± 0.10 rel. un.
  State 2 respiration: 14.05 ± 0.18 nmol O2/min/mg Protein
  State 3UDNP respiration: 56.46 ± 4.21 nmol O2/min/mg Protein
  State 3 respiration: 41.57 ± 1.36 nmol O2/min/mg Protein
  State 4 respiration: 33.23 ± 0.75 nmol O2/min/mg Protein
BT474 cells; BT474, 2 μM
  Effect on level of ROS-positive cells: significantly increase the level of ROS-positive cells
Rat liver mitochondria [8]
  Effect on production of H2O2 by organelles: antioxidant effect
Rat liver mitochondria [3]; 10 μM
  ADP/O: 2.80 ± 0.13 rel. un.
  RC (state 3/state 4): 2.24 ± 0.11 rel. un.
  State 2 respiration: 6.47 ± 0.27 nmol O2/min/mg Protein
  State 3UDNP respiration: 31.34 ± 0.49 nmol O2/min/mg Protein
  State 3 respiration: 23.82 ± 0.53 nmol O2/min/mg Protein
  State 4 respiration: 10.65 ± 0.24 nmol O2/min/mg Protein
Rat liver mitochondria [3]; 20 μM
  ADP/O: 0.64 ± 0.05 rel. un.
  RC (state 3/state 4): 1.03 ± 0.04 rel. un.
  State 2 respiration: 15.38 ± 0.30 nmol O2/min/mg Protein
  State 3UDNP respiration: 23.24 ± 0.61 *#^γ nmol O2/min/mg Protein
  State 3 respiration: 17.02 ± 0.97 nmol O2/min/mg Protein
  State 4 respiration: 16.55 ± 0.54 nmol O2/min/mg Protein
[4]
  IC50: 930 ± 70 nM
[5]
  IC50: 2.05 ± 0.58 µM
  Selectivity index (SI): 1.3–2.8
Rat liver mitochondria [9]
  Effect on membrane potential of organelles: the most effective
[6]
  IC50: 740 ± 90 nM
[7]
  IC50: 1520 ± 160 nM
  Chou–Talalay combination index (CI): 0.03

## CC1(C)CCC2(C(=O)OCCCC[n+]3ccc(C=Cc4c[nH]c5ccccc45)cc3)CCC3(C)C(=CCC4C5(C)CC(O)C(O)C(C)(C)C5CCC43C)C2C1 (stereo not drawn) (as salt: bromide) [MA-F16, N-{4-[(2α,3β-dihydroxy-olean-12-en-28-oyl)-butyl]-(E)-4-[2-(1H-indol-3-yl)-vinyl]}pyridinium bromide]
other
  melting point: 206 to 208 °C
